Measured values reported in patent US11464782B2, “Method of treating pain or interstitial cystitis using indole compound” (Japan Tobacco Inc., priority 2018, dated 2022).

Columns and labels:
Assay type in all cases: in vivo
[1] = tested on: CIA model rats; experiment: Analgesic effect in rat collagen-induced arthritis (CIA) model, paw withdrawal threshold by Randall-Selitto method; details: rats with CIA; 10 or 30 mg/kg oral once per day Days 22-28; measured Day 28
Procedure: The analgesic effect of Compound A on hypersensitivity to pain during the onset of arthritis in a rat CIA model was evaluated. Hypersensitivity to pain was evaluated using the paw withdrawal threshold (PWT) in relation to mechanical stimulus using the Randall-Selitto method.
Female LEW/CrlCrlj rats (Charles River Laboratories Japan, Inc.) were used for the experiment. A monohydrochloride of Compound A was dissolved in 0.5% methyl cellulose (MC) to prepare 2 mg/mL and 6 mg/mL solutions of Compound A. Type II collagen derived from joint bovine cartilage (Collagen Research Center) was dissolved in acetic acid to prepare a 2 mg/mL type II collagen solution. Equal volumes of the 2 mg/mL type II collagen solution and incomplete Freund's adjuvant were mixed to prepare a 1 mg/mL type II collagen emulsion.
On Day 1, the type II collagen emulsion was intradermally injected into the animals in the vehicle group, the Compound A 10 mg/kg administration group, and the Compound A 30 mg/kg administration group. On Day 8, the type II collagen emulsion was intradermally injected into the animals in the vehicle group, the Compound A 10 mg/kg administration group, and the Compound A 30 mg/kg administration group. […] On Day 28, the analgesic effect was measured using a Randall-Selitto analgesy-meter (TK-201, UNICOM). The means values and standard deviations of the PWT values for each group were calculated.

[2] = tested on: CYP-induced cystitis model mice; experiment: Mouse cyclophosphamide (CYP)-induced cystitis model, lower abdominal licking time; details: 3, 6 or 10 mg/mL solutions at 10 mL/kg oral once per day Days 7-9
Procedure: The inhibitory effect of Compound A on lower abdominal licking time was evaluated in a mouse CYP-induced cystitis model. The evaluation was performed according to M. Fujita et al., Eur J Pain. 20 (2016) 79-91. Male C57BL/6J mice (Charles River Laboratories Japan, Inc.) were used as the experimental animals.
Once per day for four days (Days 1-4) 20 mg/mL of CYP (Sigma) dissolved in saline solution was intraperitoneally administered to a vehicle group, a Compound A administration group, and an anti-NGF antibody group at a volume of 10 mL/kg, and saline solution was intraperitoneally administered to a sham group at a volume of 10 mL/kg. A monohydrochloride of Compound A was dissolved in 0.5% methyl cellulose (MC) to prepare 3 mg/mL, 6 mg/mL, and 10 mg/mL solutions of Compound A. […]
The behavior of the mice was recorded for 90 minutes using a video camera prior to the initial administration of CYP (Pre) and on Day 7, Day 8, and Day 10, and the lower abdominal licking time (seconds) was measured. […] The mean values of the licking times of the individual animals were calculated for each group, and the results are shown in FIG. 11.

[3] = tested on: rats with CYP-induced cystitis; experiment: Rat CYP-induced cystitis model, frequent urination by cystometry; details: 2 or 6 mg/mL solutions at 5 mL/kg oral twice a day Day 1-2, cystometry Day 3
Procedure: The effect of Compound A on frequent urination, calculated by single voided volume and intermicturition interval, was evaluated using a rat CYP-induced cystitis model. The evaluation was performed according to G M. Herrera et al., PLoS ONE 5 (8): e12298. Female CD (SD) rats (Charles River Laboratories Japan, Inc.) were used as the experimental animals. A monohydrochloride of Compound A was dissolved in 0.5% MC to prepare 2 mg/mL and 6 mg/mL solutions of Compound A.
30 mg/mL of CYP (Sigma) dissolved in saline was intraperitoneally administered in the vehicle group and Compound A group and saline was intraperitoneally administered in the sham group at 5 mL/kg (Day 1).
0.5% (w/v) MC was orally administered once a day for 2 days (Day 1-2) in the sham group and vehicle group at 5 mL/kg, and 2 mg/mL or 6 mg/mL solutions of Compound A was orally administered twice a day (Day 1-2) in the Compound A administration group at 5 mL/kg.
Intravesical pressure and voided volume were measured by cystometry on Day 3, and single voided volumes and intermicturition intervals were calculated. Mean values were calculated for each group from individual single voided volumes and intermicturition intervals, and the results are shown in FIG. 12A and FIG. 12B, respectively.

C[C@@H](C(=O)N(C)c1ccc2cc(-c3n[nH]c4c3CCC(C)(C)C4)[nH]c2c1)N1CCOCC1 [Compound A, N-[2-(6,6-dimethyl-4,5,6,7-tetrahydro-1H-indazol-3-yl)-1H-indol-6-yl]-N-methyl-(2S)-2-(morpholin-4-yl)propanamide]
hyperalgesia (paw withdrawal threshold to mechanical stimulus) [1]: attenuated hyperalgesia
lower abdominal licking time [2]: reduced lower abdominal licking time
frequent urination (single voided volume, intermicturition interval) [3]: suppressed frequent urination
